According to patent US10370409B2, “Synthesis of libraries of peptide tertiary amides” (The Scripps Research Institute, priority 2011, dated 2019):
Where two headings read alike, the source gives them in different places. Numbered stars: 1 amine (or outer) side, 2 acyl side, 3 side chain; on linkers, the order of the positions; unused ones are H or OH. Square brackets hold non-standard residues; d marks the D form. Peptide text beside a SMILES is read from it. X1 = COc1ccc(CN([C@@H](C)C(=O)[*:2])[*:1])cc1OC; Gly(Nα-4-F-phenethyl) = O=C(O)CNCCc1ccc(F)cc1; X3 = COc1ccc(CN(CC(=O)[*:2])[*:1])cc1OC; X2 = C[C@@H](C(=O)[*:2])N(CCCCN)[*:1]; Gly(N-propargyl) = C#CCNCC(=O)O; NFurfurylGly = O=C(O)CNCc1ccco1; Nlys = NCCCCNCC(=O)O

Assays:
scFv PX4-4 = assay: Fluorescence polarization / anisotropy titration of fluorescein-labelled compounds with PX4-4; assay type: binding, human; conditions: for Kd: FP titration with PX4-4
Experimental: Hits identification: All 17 hits were cleaved using CNBr and then characterized by MALDI mass spectrum. All 17 structures were resynthesized and examined against PX4-4 with FP assay. Only one hit was identified as binder with a Kd <10 μM.
(§1) The affinity of compound 13 for PX4-4 was determined by fluorescence anisotropy.
96 beads were chosen randomly from the library and placed individually into the wells of a 96-well filter plate. Each well was treated with fluorescein azide and a copper catalyst to attach fluorescein to the alkyne handle and then the compounds were cleaved from beads. The beads were filtered out and the soluble compounds were used for the fluorescence polarization (FP) assay. All 27 possible structures were found in this collection of molecules by tandem MS sequencing. Semi-quantitative binding constants for the PX4-4 antibody all 27 of the compounds were determined by titrating the compounds with the protein in the microwell format and monitoring the increase in FP. […] Most of the curves approached saturation, allowing for an accurate determination of the KD. In contrast, compound A41, corresponding to peptoid 14), was not saturated in the tested protein concentration range (100 nM to 400 μM) (FIG. 9B).

whole human IgG = assay: Fluorescence polarization selectivity test with a mixture of human IgG; assay type: binding; conditions: FP experiment repeated using a mixture of human IgG; FIG. 9B
Experimental: as §1
To address the selectivity of compounds A14 (N,R,S configuration), A7 (N,S,S), A68 (R,S,R), A41(N,N,N) and A24 (R,R,R) for PX4-4, the FP experiment was repeated using a mixture of human IgG as we did previously for compound 13. […] This implies that greater conformational flexibility is associated with binding promiscuity.

[1] = re-synthesized and purified compounds, read-out: Kd-re
[2] = semi-quantitative, compounds cleaved from single beads, 96-well microwell format, read-out: Kd-96

Structure (SMILES) | Kd (scFv PX4-4; [1]) [µM] | Kd (scFv PX4-4; [2]) [µM] | binding with whole human IgG (whole human IgG) | saturation of FP binding curve with PX4-4 (scFv PX4-4; protein concentration range 100 nM to 400 μM, FIG. 9B)
C#CCN(CC(=O)N(CCCCN)CC(=O)N(CC(N)=O)Cc1ccco1)C(=O)CN(CCCCN)C(=O)CN(CCc1ccc(F)cc1)C(=O)[C@H](C)N(CCCCN)C(=O)[C@H](C)NCc1ccc(OC)c(OC)c1 [A7] (H-[X1][X2][Gly(Nα-4-F-phenethyl)][Nlys][Gly(N-propargyl)][Nlys][NFurfurylGly]-NH2) | 25.4 | 40.9 | no binding | –
[2H]C([2H])([2H])[C@]([2H])(C(=O)N(CCc1ccc(F)cc1)CC(=O)N(CCCCN)CC(=O)N(CC#C)CC(=O)N(CCCCN)CC(=O)N(CC(N)=O)Cc1ccco1)N(CCCCN)C(=O)[C@H](C)NCc1ccc(OC)c(OC)c1 [A14] | 19.1 | 27.5 | no binding | –
C#CCN(CC(=O)N(CCCCN)CC(=O)N(CC(N)=O)Cc1ccco1)C(=O)CN(CCCCN)C(=O)CN(CCc1ccc(F)cc1)C(=O)CN(CCCCN)C(=O)CNCc1ccc(OC)c(OC)c1 [A41] (H-[X3][Nlys][Gly(Nα-4-F-phenethyl)][Nlys][Gly(N-propargyl)][Nlys][NFurfurylGly]-NH2) | – | 113 | – | not saturated

Now from value to molecule:

Kd (scFv PX4-4; [1]) [µM] | Kd (scFv PX4-4; [2]) [µM] | binding with whole human IgG (whole human IgG) | saturation of FP binding curve with PX4-4 (scFv PX4-4; protein concentration range 100 nM to 400 μM, FIG. 9B) | Structure (SMILES)
233 | 117 | no binding | – | [2H]C([2H])([2H])[C@@]([2H])(NCc1ccc(OC)c(OC)c1)C(=O)N(CCCCN)[C@@]([2H])(C(=O)N(CCc1ccc(F)cc1)[C@@]([2H])(C(=O)N(CCCCN)CC(=O)N(CC#C)CC(=O)N(CCCCN)CC(=O)N(CC(N)=O)Cc1ccco1)C([2H])([2H])[2H])C([2H])([2H])[2H] [A24]
65.2 | 43.2 | no binding | – | [2H]C([2H])([2H])[C@@]([2H])(NCc1ccc(OC)c(OC)c1)C(=O)N(CCCCN)[C@@H](C)C(=O)N(CCc1ccc(F)cc1)[C@@]([2H])(C(=O)N(CCCCN)CC(=O)N(CC#C)CC(=O)N(CCCCN)CC(=O)N(CC(N)=O)Cc1ccco1)C([2H])([2H])[2H] [A68]
